Measured values reported in US8637252B2, “Methods and compositions for determining altered susceptibility of HIV-1 to anti-HIV drugs” (Monogram Biosciences, Inc., priority 2011, dated 2014).

Tested on: HIV-1 (PRRT-RH segment of patient sample 62)
Test: phenotypic drug resistance test, PRRT-RH amplicon of sample 62
Format: cell-based
Text: Patient-derived segment(s) corresponding to the entire pol gene, encoding HIV protease, reverse transcriptase (including RNAse H), and integrase (hereinafter “POL”), the portion of pol encoding amino acids 1-305 of reverse transcriptase (hereinafter “PR-RT”), the portion of pol encoding amino acids 319-440 of reverse transcriptase (including RNAse H), and integrase (hereinafter “RHIN”), were amplified by the reverse transcription-polymerase chain reaction method (RT-PCR) using viral RNA isolated from viral particles present in the plasma or serum of HIV-infected individuals as described below. The portion of pol encoding protease, amino acids 1-531 of reverse transcriptase (including RNase H) (hereinafter “PRRT-RH”), or the portion of pol encoding protease, reverse transcriptase (including RNAse H) and integrase (hereinafter “PRRT-RHIN”), were assembled from amplicons described above by standard recombinant DNA techniques involving a KpnI restriction site at amino acid 400 or a Pin A1 site at amino acid 315.
Drug resistance tests performed with test vectors were carried out using packaging host and target host cells consisting of the human embryonic kidney cell line 293.
Resistance tests were carried out with the RTV libraries by using viral particles comprising the RTV libraries to infect a host cell in which the expression of the indicator gene is measured. The amount of indicator gene (luciferase) activity detected in infected cells is used as a direct measure of “infectivity,” i.e., the ability of the virus to complete a single round of replication. Thus, drug resistance or sensitivity can be determined by plotting the amount of luciferase activity produced by patient derived viruses in the presence of varying concentrations of the antiviral drug. By identifying the concentration of drug at which luciferase activity is half-maximum, the IC50 of the virus from which patient-derived segment(s) were obtained for the antiretroviral agent can be determined. […]

| SMILES | Fold Change in IC50, PRRT-RH amplicon |
| --- | --- |
| CC(C)Nc1cccnc1N1CCN(C(=O)c2cc3cc(NS(C)(=O)=O)ccc3[nH]2)CC1 [DLV, delavirdine] | 250.00 fold |
| O=C1Nc2ccc(Cl)cc2[C@@](C#CC2CC2)(C(F)(F)F)O1 [EFV, efavirenz] | 276.90 fold |
| Cc1ccnc2c1NC(=O)c1cccnc1N2C1CC1 [NVP, nevirapine] | 400.00 fold |
